Measurements: article PMC9785777, “Antidiabetic Potential of Novel 1,3,5-Trisubstituted-2-Thioxoimidazloidin-4-One Analogues: Insights into α-Glucosidase, α-Amylase, and Antioxidant Activities” (Pharmaceuticals, 2022)
≈ marks a conversion by molar mass, not a printed value. Where “and” joins values, the source holds several entries; their conditions need not be identical. Equal entries are not always repeated.

Assays:
INS-1 cells = system: INS-1 cells; design: method as in PMID 10918947; conditions: 10 µg/mL, in the presence of 5.6 mmol/L glucose ref 36; cited from earlier work
α-glucosidase = conditions: cited from earlier work
α-amylase = conditions: cited from earlier work
[1] = ROS-generation assay (H2O2 generated with DTT, HRP-phenol red, 610 nm); conditions: 50 µM compound, incubated with DTT; control 90.74±5.54
Text: The […] metabolites and enzymes (such as NADPH oxidase, lipoxygenase, and cytochrome P450) act together to mediate the production of ROS and diminish the counteractive oxidative damage. ROS can cause damage to DNA, lipid, proteins, and nucleic acids and the destruction of cell components leading to cell death. Toward this end, we aimed to investigate whether the mode of action of this class of compounds involved the generation of ROS. ROS-producing compounds upon reaction with a reducing agent in the presence of oxygen afford superoxide O^•−2 radical and hydrogen peroxide (H2O2) which could be quantitively estimated. Thus, compounds 5a and 7a (at 50 µM concentration) were incubated with the reducing agent dithiothreitol (DTT) and the generated H2O2 was subsequently assessed by monitoring the oxidation of phenol red in the presence of horseradish peroxidase (HRP) at the absorbance of 610 nm. We first examined the validity of the assay by examining the activity of a known ROS-producing standard drug. In our study, Celecoxib was utilized as a reference pharmacological ROS-generating drug. […] Next, we evaluated the potency of compounds 5a and 7a to produce ROS at a 50 µM concentration.
According to Nasiri et al., the antioxidant activity of compounds (5a, 7a) and Celecoxib was measured by an evaluation of ROS-generation using ELISA analysis. Three different solutions were prepared for the in vitro assessment of ROS-generation: phenol red, sodium hydroxide solution, and DTT. All reagents were provided by Sigma-Aldrich. A stock solution of DTT (20 mM) was prepared by dissolving […] of DTT in 500 µL of Hank’s Balanced Salt Solution (HBSS), and the obtained solution was preserved at −20 °C. The stock solution was further diluted with HBSS to 0.8 mM for each measurement. The HRP-PR solution was prepared by dissolving 1.8 mg of horseradish peroxidase (HRP) and 3 mg of phenol red (PR) in 10 mL of HBSS. […] After incubation, 1N NaOH was applied, and the absorbance at 610 nm was measured using a plate reader spectrometer. […]

[2] = MTT cytotoxicity assay against WI-38 cells; assay type: cell-based, human; conditions: human, WI-38 lung fibroblast cells
Description: (§1) Based on the promising dual inhibitory activity of this class of compounds, we next evaluated the cytotoxicity of compounds 5a and 7a against human lung fibroblast cell line WI-38 in order to gain insights into the toxicity of this class of compounds utilizing the MTT assay. In this regard, lung fibroblast cells were cultured and treated with compounds 5a and 7a for 48 h at different concentrations (1000, 250, 63, 16, and 4 µg/mL). After the cells were washed, they were treated with MTT solution and the absorption was assessed using an ELISA reader at 570 nm. As a pharmacological reference drug, Celecoxib, a well-known anti-inflammatory agent, was utilized.
(§2) The cytotoxicity of compounds 5a and 7a was assessed toward the human lung fibroblast WI-38 cell line (Sigma-Aldrich, St. Louis, MO, USA, product number 90020107) using MTT assay. The MTT test assay was performed in accordance with the previously stated procedure. MTT (3-(4,5-dimethylthiazol-2-yl)-2,5-diphenyl tetrazolium bromide; Sigma catalog no. M2128) was dissolved in PBS at 5 mg/mL and processed to eliminate the insoluble residues. Briefly, cells (10^5 cells/well) were treated for 48 h at 37 °C with compounds 5a and 7a at varied doses (1000, 250, 63, 16, and 4 µg/mL, DMSO stock solutions) in a 5% CO2 atmosphere. In our assessment, celecoxib, an inhibitor of cyclooxygenase 2, was employed as a standard reference drug. Following cell washing, MTT solution (180 µL/well) was applied to the cells and incubated at 37 °C for 4 h with shaking, and the absorbance was measured using an ELISA reader at 570 nm.

[3] = system: human lung fibroblast WI-38 cell line; assay: MTT cytotoxicity assay against WI-38 cells; assay type: cell-based; conditions: MTT, 48 h
Description: as §1, §2

In the case of `CN1C(=O)/C(=C/c2ccc(-c3cc(=O)c4ccccc4o3)cc2)N(C)C1=S` [Compound 9], the “increase of insulin release as compared to control” value (INS-1 cells) is given as 40%.

In the case of `O=C1CNC(=S)N1C(=O)c1cc([N+](=O)[O-])cc([N+](=O)[O-])c1` [Compound 3j], the IC50 (α-glucosidase; read-out: IC50 toward α-glucosidase enzyme) is given as 51 µM and the IC50 (α-amylase; read-out: IC50 toward α-amylase enzyme) is given as 8.2 µM.

For `O=C1CNC(=S)N1` [unsubstituted-2-thiohydantoin, 2-thiohydantoin], the “IC50 toward α-glucosidase activity” value (α-glucosidase) is given as 356.22 µg/mL (≈ 3070 µM) and the “IC50 toward α-amylase activity” value (α-amylase) is given as 410.35 µg/mL (≈ 3530 µM).

For `Cc1ccc(-c2cc(C(F)(F)F)nn2-c2ccc(S(N)(=O)=O)cc2)cc1` [Celecoxib, reference compound], the “ROS produced (generated H2O2)” value [1] was 171.6 pg/mL and 171.6 ± 1.89 pg/mL, the viability at 48 h, 4 µg/mL ([2]; 4 µg/mL (log conc. 0.602)) was 67.3% and the viability at 48 h, 16 µg/mL ([2]; 16 µg/mL (log conc. 1.204)) was 61.7%. The viability at 48 h, 63 µg/mL ([2]; 63 µg/mL (log conc. 1.799)) was 54.2%, the viability at 48 h, 250 µg/mL ([2]; 250 µg/mL (log conc. 2.398)) was 43% and the viability at 48 h, 1000 µg/mL ([2]; 1000 µg/mL (log conc. 3)) was 35.4%. For the same compound, the IC50 at 48 h ([2]; MTT) was 93 µg/mL (≈ 244 µM) and the “WI-38 cytotoxicity IC50” value [3] was 93.054 µg/mL.
